Results published in patent publication US12428370B2, “Haloallylamine dual amine oxidase inhibitors” (Syntara Limited, priority 2020, dated 2025).
Counter-ions that a name gives are not always drawn.

Key:
recombinant human MAO-A = molecular target: T1, recombinant human MAO-A (Homo sapiens, UniProt P21397); assay: Inhibition of human recombinant MAO-A; assay type: biochemical; settings: incubation time of 2 hours, tyramine 100 μM
T1 construct: purchased Sigma Aldrich
T1 sequence (P21397 1-527): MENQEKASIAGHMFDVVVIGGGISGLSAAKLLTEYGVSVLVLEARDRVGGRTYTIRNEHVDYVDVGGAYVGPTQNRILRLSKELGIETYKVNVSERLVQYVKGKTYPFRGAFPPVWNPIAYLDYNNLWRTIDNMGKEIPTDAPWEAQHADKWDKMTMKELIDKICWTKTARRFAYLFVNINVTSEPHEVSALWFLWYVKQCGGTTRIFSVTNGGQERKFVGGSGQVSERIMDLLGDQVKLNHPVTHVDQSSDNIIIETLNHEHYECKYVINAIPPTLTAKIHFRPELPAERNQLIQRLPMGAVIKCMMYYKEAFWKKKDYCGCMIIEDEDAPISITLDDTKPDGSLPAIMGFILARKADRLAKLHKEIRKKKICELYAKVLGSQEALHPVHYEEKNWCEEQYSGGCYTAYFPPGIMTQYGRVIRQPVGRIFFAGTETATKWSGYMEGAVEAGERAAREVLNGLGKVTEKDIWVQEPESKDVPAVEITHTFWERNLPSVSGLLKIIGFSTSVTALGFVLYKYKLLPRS
Protocol: Method to Determine the Ability of Compounds of Formula I to Inhibit Human Recombinant MAO-A
The selectivity of the compounds of this invention was tested by determining their ability to inhibit MAO-A activity in vitro, using recombinant human MAO-A (0.003 mg/mL; Sigma Aldrich). The assay was performed in a similar way as for human SSAO/VAP-1 (EXAMPLE 9) except, the substrate tyramine was used at 100 μM in place of benzylamine and the assay was run after an incubation time of 2 hours.

[1] = system: mdx mice (C57BL/10ScSn-Dmdmdx/J); assay: Mouse model of Duchenne muscular dystrophy, PXS-5131; assay type: in vivo; settings: 6 mg/kg/day oral, 4 weeks, 3 months old mdx mice
Protocol: mdx mice (C57BL/10ScSn-Dmdmdx/J) were obtained from Jackson Laboratories, Maine, US. […] Untreated, age-matched animals were used as controls. The drug was administered using small palatable gelatin pellets prepared with 10% gelatin in 20% sucralose plus food flavoring (Zhang L. Protoc. Exch. 2011, 236) Animals were pre-conditioned to recognize and eat the gelatins with a three-day routine involving overnight fasting followed by exposure of each single animal to the gelatin without the active principle, in the absence of other food. Palatability was further improved by dipping the pellets in corn oil containing trace amounts of almond oil and then breading them with pulverized food pellet.
Muscle function in vivo was assessed for the gastrocnemius muscle, as described by Blaauw B. et al., Hum. Mol. Genet. 2008, 17, 3686-3696. Mice were anesthetized, and electrodes were placed on either side of the sciatic nerve, while the common peroneal nerve was cut. Muscle torque production was measured using a lever system (Aurora Scientific 305B). A lever arm of 2.1 mm was used for all groups, as no major differences in body weight between various groups was observed. Eccentric contractions were performed by moving the foot backward at a velocity of 40 mm/s while the gastrocnemius was stimulated with a frequency sufficient to induce full tetanic fusion (100 Hz). Contractions were repeated once every 20 s to avoid inducing fatigue (see FIG. 6).
After the force measurements described above, animals were sacrificed by cervical dislocation and the skeletal muscle and the heart (minus the atria) were collected, flash-frozen in isopentane pre-cooled with liquid nitrogen and stored at −80° C. 12 μm sections from a limb muscle (tibialis anterior) were prepared with a cryotome; multiple serial slides were prepared, containing sections from at least three different levels. The same procedure was used to prepare heart transverse sections.
The amount of the neutrophil and macrophage infiltration was determined in serial sections of skeletal muscle prepared as described above, which were fixed and then stained via immunofluorescence with an anti Ly6G and an anti F4/80 antibody (AbCam, ab25377 and ab6640, for neutrophils and macrophages, respectively). The amount of infiltrate was assessed as percentage of fluorophore-positive pixel over the total area of the sections, using Image-J software (FIGS. 7A and B).
The amount of reactive oxygen species (ROS) present in the skeletal muscle tissue sections was assessed using dihydroethidium (DHE, Sigma) as a fluorescent probe in freshly cut tissue sections as described by Menazza et al., et al., Hum. Mol. Genet. 2010, 19, 4207-4215. In the presence of ROS, DHE is oxidized forming ethidium, which then can bind to nuclear DNA and emit red fluorescence. The amount of the red fluorescence was then measured from at least 20 random fields per each section using the Metafluor software (Leica), and data were averaged per field (FIG. 7C).
The percentage of fibrotic tissue in skeletal muscle was determined by picrosirius red staining. […] Whole images of at least three sections per muscle sample were then acquired with a bright field microscope and then analyzed with Image-J software, in order to measure the percentage of fibrotic (red) areas with respect to the total surface (FIG. 7D).

[2] = Metabolic stability profile (liver microsomes, hepatocytes, plasma, whole blood, simulated gastric fluid, metabolite identification); assay type: in vitro ADME; settings: all assays: liver microsomes, plasma (human, rat, dog), simulated gastric fluid pH 1.2, metabolite identification
Protocol: Assessment of the metabolic stability profile of Compound 1 using standardized commercially available methods (available through contract research organizations such as Eurofins Panlabs Inc, (https://www.eurofinsdiscoveryservices.com/services/in-vitro-assays/) or Evotec SE, (https://www.evotec.com/en/execute/integrated-pre-clinical-development/adme)).
The potential for metabolism in vivo was evaluated in vitro using the following assays:
Liver microsomal stability (human, rat, dog; in presence of NADPH)
Hepatocyte stability (human, rat, dog)
Plasma stability (human, rat, dog)
Whole blood stability (human, rat)
Simulated gastric fluid stability (10 μM test article, pH 1.2)
Metabolite identification in human hepatocytes

phospholipidosis = assay: Phospholipidosis cell-based fluorescence assay; settings: concentrations up to 100 μM
Protocol: Assessment of the Potential of Compound 1 to Induce Phospholipidosis in a Cell-Based Fluorescence Assay.
Compound 1 was tested in vitro for the potential to induce phospholipidosis according to the method outlined by Fujimura et. al. (Experimental and Toxicologic Pathology, 2007, 58, 375-382) at concentrations up to 100 μM.

SMILES | IC50 (recombinant human MAO-A) | neutrophil influx in the tibialis anterior muscle ([1]; p<0.0001, FIG. 7A) | macrophage influx in the tibialis anterior muscle ([1]; p<0.0001, FIG. 7B) | reactive oxygen species in the tibialis anterior muscle ([1]; p<0.0001, FIG. 7C) | fibrosis (picrosirius red staining) in the tibialis anterior muscle ([1]; p<0.0001, FIG. 7D) | loss of force caused by eccentric contractions in the gastrocnemius muscle ([1]; p<0.05, FIG. 6) | metabolic stability [2] | effect on cell viability (phospholipidosis) | effect on the cellular phenotype (phospholipidosis) (phospholipidosis)
NC/C(=C\F)C1Cc2ccccc2O1 (single isomer, unassigned; (-)) [PXS-5131, (−)-(E)-2-(2,3-Dihydrobenzofuran-2-Yl)-3-Fluoroprop-2-En-1-Amine Hydrochloride] | 0.3 to 3 µM | significantly reduces | significantly reduces | significantly reduces | significantly reduces | helps protect against the loss of force | – | – | –
N#Cc1ccc(OC/C(=C/F)CN)cc1 [Compound 1, (E)-4-((2-(aminomethyl)-3-fluoroallyl)oxy) benzonitrile] | > 30 µM | – | – | – | – | – | favourable metabolic stability | no effect | no effect
